From patent US20230022796A1 (Merck Patent GmbH, priority 2019, published 2023)

What was measured:
[1] = system: CHO cell line producing mAb3; assay: Fed-batch cell performance (viable cell density), clone 3 producing mAb3; type: cell-based, Chinese hamster; conditions: mAb3, feed with 400 μM additive
Method: Four different clones of Chinese hamster ovary (CHO) cells expressing three different monoclonal antibodies (mAb) and a fusion protein were tested. Cells were cultivated in spin tubes between 14 and 20 days at 37° C., 5% CO2, and 80% humidity. As starting cell density, 3×10^5 cells/mL in 30 mL Cellvento®4CHO media (pH 7.0±0.1) was used for clone 1 and 2 producing mAb1 and mAb2, respectively (Cellvento® Platform). Cells were cultivated at an agitation rate of 320 rpm and were fed on day 3, 5, 10, 12 and 14 with 3% volume of Cellvento® 4Feed (v/v) and on day 7 with 6% (v/v) of the feed. Clone 3 and 4 producing mAb3 and a fusion protein were inoculated at the same cell density in 30 mL Ex-Cell® Advanced Media (pH 7.2±0.1) while agitation was set to 230 rpm. Clones 3 and 4 were fed with 5% Ex-Cell® Advanced Feed (v/v) on day 3, 5, 7, 10, 12, 14 and 17. […]
The glucose level was maintained above 4 g/L by adding a specific amount of a 400 g/L glucose stock solution on demand to up to 6 g/L during the week and up to 13 g/L over the weekend. Glucose and titer were detected in the supernatant with the bioprocess analyzer CEDEX Bio HT (Roche, Mannheim, Germany) based on spectrophotometric and turbidometric methods. The viable cell density (VCD) and viability were evaluated with a Vi-CELL™ XR 2.04 cell counter (Beckman Coulter, Fullerton, Calif., USA). […]

[2] = system: CHO cell line producing mAb2; assay: Glycosylation profile (UPLC-MS of released glycans) of mAb2 from fed-batch; type: cell-based, Chinese hamster; conditions: mAb2, 400 μM additive, day 12
Method: Glycosylation patterns were analyzed by ultra-performance liquid chromatography coupled to a mass spectrometer (UPLC-MS). The purified antibody was denaturated and the glycans were released from the antibody by digestion with peptide N-glycosidase F (PNGase F) followed by labeling the glycans with the GlycoWorks™ RapiFluor-MS™ N-Glycan Kit according to the manufacturer protocol. For the analysis, an UPLC glycan column (2.1×150 mm) that separated the glycans according to their […] was used. The chromatography was performed at 45° C. using 50 mM ammonium formate (A), pH 4.4 solution and an acetonitrile (B) gradient. In detail, at the beginning the ratio of A:B was 20:80 (0 min) and changed to 27:73 at 3 min and 37:63 at 35 min at a flow rate of 0.5 ml/min. From 36.5 min to 39.5 min only A was used as mobile phase and the flow rate was reduced to 0.2 ml/min. Subsequently, the ratio was changed to 20% A:80% B and the flowrate was increased to 0.5 ml/min at 43.1 min until the end of the process at 55 min. The detection was performed by a fluorescence detector with an excitation wavelength of 265 nm and an emission wavelength of 425 nm. The identification of the glycan structures was performed by MS using positive electro spray ionization (ESI), which was calibrated every 30 s with a standard.
Four different clones of Chinese hamster ovary (CHO) cells expressing three different monoclonal antibodies (mAb) and a fusion protein were tested. Cells were cultivated in spin tubes between 14 and 20 days at 37° C., 5% CO2, and 80% humidity. As starting cell density, 3×10^5 cells/mL in 30 mL Cellvento®4CHO media (pH 7.0±0.1) was used for clone 1 and 2 producing mAb1 and mAb2, respectively (Cellvento® Platform). Cells were cultivated at an agitation of 320 rpm and were fed on day 3, 5, 10, 12 and 14 with 3% volume of Cellvento® 4Feed (v/v) and on day 7 with 6% (v/v) of the feed. Clone 3 and 4 producing mAb3 and a fusion protein were inoculated at the same cell density in 30 mL Ex-Cell® Advanced Media (pH 7.2±0.1) while agitation was set to 230 rpm (Ex-Cell® Platform). Clones 3 and 4 were fed with […] Advanced Feed (v/v) on day 3, 5, 7, 10, 12, 14 and 17. […] The pH of all Cellvento® feeds was adjusted to 7.0±0.1 and Ex-Cell® Feeds were adjusted to 8.5±0.1. The glucose level was maintained above 4 g/L by adding a specific amount of a 400 g/L glucose stock solution on demand to up to 6 g/L during the week and up to 13 g/L over the weekend. Glucose and titer were detected in the supernatant with the bioprocess analyzer CEDEX Bio HT (Roche, Mannheim, Germany).
To investigate the glycosylation profile during the fed-batch experiment samples were centrifugated and antibodies and Fc-fusion proteins were purified from the cell culture supernatant using protein A PhyTips® (PhyNexus Inc, San Jose, Calif.). Glycosylation patterns were analyzed as described by ultra-performance liquid chromatography coupled to a mass spectrometer (UPLC-MS) using the GlycoWorks™ RapiFluor-MS™ N-Glycan Kit.
Glycosylation profile on day 12 was visualized since harvest of recombinant produced proteins on day 12 is common. Quantification of the glycans was obtained using the relative peak area of the fluorescence signal. Almost all peaks were assigned to glycan structures according to their mass. Unknown glycan structures and signals without mass detection were summarized as unknown species (not shown). […]

[3] = biological target: FcγRIIIa V176; assay: Surface plasmon resonance (Biacore) binding of mAb3 from treated cultures to FcγRIIIa
Method: Binding of samples after 5-ThioFuc treatment was investigated by surface plasmon resonance technology using a Biacore T200 system (GE Healthcare, Uppsala, Sweden). The analysis temperature was set to 25° C. and sample compartment temperature to 15° C. […] The anti-His antibody was further used to capture His-tagged FcγRIIIa V176 ([…]) from AcroBiosystems (Newark, Del., USA).
Binding was recorded continuously, while unspecific binding and injection artefacts were subtracted automatically. Single-cycle kinetics were used with a dissociation time of 600 s at a flow rate of 30 μL/min. Data collection rate was performed at 10 Hz. Following each experiment, both flow cells were regenerated for 30 s with 10 mM glycine-HCl pH 1.5 according to kit instructions. Data of three technical and two biological replicates were fitted with a 1:1 binding model. The global dissociation constant KD was determined from the ratio of the kinetic rate constants for dissociation (kd) and association (ka) values. Data are presented in Table 1 as fold change compared to the control.

SMILES: C[C@@H]1SC(O)[C@@H](O)[C@H](O)[C@@H]1O (stereo partly drawn)
- reduced VCD (area under the curve until day 17, compared to the control) [1]: about 13%
- afucosylation [2]: 60%
- core-fucosylation [2]: 8%
- Kd ([3]; mAb3 from culture fed with 50 μM additive, day 5): 85 nM
- Kd ([3]; mAb3 from culture fed with 50 μM additive, day 12): 63 nM
- Kd ([3]; mAb3 from culture fed with 50 μM additive, day 14): 61 nM
- Kd ([3]; mAb3 from culture fed with 200 μM additive, day 5): 52 nM
- Kd ([3]; mAb3 from culture fed with 200 μM additive, day 12): 40 nM
- Kd ([3]; mAb3 from culture fed with 200 μM additive, day 14): 28 nM
- Kd ([3]; mAb3 from culture fed with 400 μM additive, day 5): 35 nM
- Kd ([3]; mAb3 from culture fed with 400 μM additive, day 12): 32 nM
- Kd ([3]; mAb3 from culture fed with 800 μM additive, day 5): 40 nM
